Experimental data taken from patent US20230040415A1 (PureTech LYT 100, Inc., priority 2020, published 2023).
Like-named read-outs stand apart in the source and are kept apart here.

Key:
[1] = MAD study adverse event profile; assay type: in vivo
Text: All subjects in Part 1 and Part 2 will be monitored for safety (including assessment of chemistry, haematology and urinalysis parameters, electrocardiograms [ECGs], vital signs and adverse events [AEs]) and samples will be collected for assessment of PK at predefined time points pre and post-dose as delineated in the Schedule of Events.

[2] = Food effect study Part 2, single 500 mg dose fed vs fasted; assay type: in vivo, human; conditions: human, plasma, oral, 500 mg, LYT-100 @500 mg single dose, analyte = label
Method: The comparison will be based on Day 1, Day 2 and Day 3 PK plasma samples after the first dose of study drug on Day 1 under fast and fed conditions of Part 2.
Subjects will be admitted to the CRU on Day −1 and will fast overnight for at least 10 h.

[3] = test system: L929 cells; test: TGF-induced collagen synthesis in L929 cells, 6-wells (SIRCOL); assay type: cell-based; conditions: 500 μM
Method: 100,000 L929 cells were plated in complete DMEN and incubated until confluency for 3 days. Medium was removed and complete DMEM containing Prolin (20 μg/ml) and ascorbic acid (10 μM) was added. […] Cells were further incubated for 72 hrs. Supernatant was removed, cells were washed with cold PBS, 1 ml SIRCOL reagent was added onto the cells and cells were scraped off, samples were shaken for 5 h. at RT, centrifuged at 10.000 rpm for 5 min, supernatant was removed, pellet was dissolved in 0.5 M acetic acid to remove unbound dye, and re-centrifuged at 10.000 rpm for 5 min, supernatant was removed and final pelet was dissolved in 1 ml 0.5M NaOH, shaken at RT for 5 h, 100 μl of resulted solution was placed in 96-well and O.D was determined at 600.

[4] = test system: Primary Mouse Lung Fibroblasts; test: TGF-β-induced insoluble collagen synthesis, 96-well plate format (Sircol); assay type: cell-based; conditions: 500 μM, TGF-β 5 ng/ml, 72 hours, FIG. 4C; p=0.0003
Method: Approximately 5,000 primary mouse fibroblasts were plated in complete DMEM in 96 well plates and incubated for 3 days at which time the cultures achieved confluency. After cells reached confluency, the medium was removed and fresh DMEM supplemented with ascorbic acid (20 μg/ml) and prolin (10 μMol) was added. […] One hour later, TGF-β was added to the appropriate cultures at a final concentration of 5 ng/ml. After 72 hours, the media was replaced with a 0.5% glutaraldehyde solution. After 30 minutes, the adherent cells were washed and subsequently incubated with acetic acid at a final concentration of 0.5M. After a 30 min room temperature incubation, and subsequent washing steps, the wells were incubated with Sircol reagent. After 5 hours, the unbound dye was removed and the plates were washed and allowed to dry. To extract collagen-bound Sircol, 100 μL of alkaline solution (0.5M NaOH) was added and plates were shaken for 1 h on rotary shaker at room temperature. Absorbance at 600 nm was determined to detect bound collagen.

[5] = test system: Primary Mouse Lung Fibroblasts; test: TGF-β-induced soluble collagen ELISA; assay type: cell-based; conditions: Fibroblast
Method: Approximately 5,000 primary mouse lung fibroblasts were plated in complete DMEM in 96 well plates and incubated for 3 days at which time the cultures achieved confluency. After cells reached to confluency, medium was removed and fresh DMEM supplemented with ascorbic acid (20 μg/ml) and prolin (10 μM) was added. […] One hour later, TGF-β (5 ng/ml) was added to the appropriate cultures at a final concentration. After 72 hours, 200 μl samples of the supernatant were placed onto an ELISA plate and incubated overnight. After blocking with %1 BSA for 2 h, plates were incubated with either an anti-collagen type I antibody or an anti-fibronectin antibody.
The plates were washed after 1 hour and incubated with secondary horseradish peroxidase-conjugated antibodies (anti-goat for the collagen antibody, anti-rabbit for the fibronectin antibody). After a series of washing steps the color reagent TMB (3,3′,5,5′-Tetramethylbenzidine) was added and 15 minutes later the reactions were terminated with equal volumes of 2 N H2SO4. The levels of soluble collagen and fibronectin were determined by evaluating absorbance at 450 nm.

[6] = test system: Primary Mouse Lung Fibroblasts; test: Survival / TGF-β-induced proliferation of Primary Mouse Lung Fibroblasts (MTT); assay type: cell-based; conditions: 500 μM, 72 hrs
Method: Primary Mouse lung fibroblast were prepared as follows. One lung was removed from 2 months old male BalbC Mouse, perfused with sterile PBS, minced and incubated in 2 ml of serum free Dulbecco's Modified Eagle's Medium (DMEM) containing 100 μg/ml of collagenase I for one hour at 37° C. Each sample was centrifuged at 1500 r.p.m (revolution per minute) for 5 minutes, washed three times with PBS and the final cellular pellet was resuspended in DMEM supplemented with 10% serum and Pen/Strep, and incubated in 150 mm plates at 37° C. with 80% humidity and […]. The growth medium was removed and fresh medium was added every day for 10 days.
At the end of 10-day incubation period above, lung fibroblasts were confluent. […] One hundred μL of the growth medium was removed and 20 μL of MTT stock solution (prepared in PBS at 5.5 mg/ml concentration) was added and cells were incubated for 4 hrs, then 100 μl of DMSO was added, and absorbance of developed color was monitored at 540-690 nm.

Q: With `[2H]C([2H])([2H])c1ccc(=O)n(-c2ccccc2)c1` [LYT-100, 5-(methyl-d3)-1-phenylpyridin-2-(1H)-one] as the molecule, how does the “tolerability of 750 mg dosing” value ([1]; 750 mg BID) read?
A: surprisingly well tolerated

Q: What about the “most common adverse events” value ([1]; blinded MAD data) of the same molecule?
A: headache and mild abdominal discomfort

Q: And the “severity of adverse events” value ([1]; blinded MAD data, 100-1000 mg BID, 5 days)?
A: mild and transient

Q: And the AUC ([2]; read-out: AUC, Fasted)?
A: 60900 ng·h/mL

Q: What about the AUC ([2]; read-out: AUC, Fed) of the same molecule?
A: 49500 ng·h/mL

Q: What about the Cmax ([2]; read-out: Cmax, Fasted) of the same molecule?
A: 10300 ng/mL

Q: What about the Cmax ([2]; read-out: Cmax, Fed) of the same molecule?
A: 7900 ng/mL

Q: What about the “collagen synthesis in the absence of added TGF-β” value [3] of the same molecule?
A: significantly inhibits

Q: What about the TGF-induced collagen synthesis ([3]; TGF-β 5 ng/ml, 72 hrs) of the same molecule?
A: inhibits

Q: What about the “diminution of TGF-β-stimulated insoluble collagen accumulation” value [4] of the same molecule?
A: 24%

Q: What about the inhibition at 500 µM ([5]; TGF-β 5 ng/ml, 72 hours, p=0.0001, read-out: inhibition of TGF-β-dependent increase of soluble collagen) of the same molecule?
A: 36%

Q: What about the inhibition at 500 µM ([5]; no TGF-β, p=0.0115, read-out: inhibition of background level of soluble collagen) of the same molecule?
A: 23%

Q: And the “survival of PMLF alone” value ([6]; without TGF-β)?
A: did not affect the survival

Q: And the “diminution of TGF-β-induced proliferation of PMLF” value ([6]; TGF-β 5 ng/ml, not statistically significant (p=0.19))?
A: 10%
